Values of other authors as cited in patent US7932388B2, “Isotopically enriched N-substituted piperazines and methods for the preparation thereof” (DH Technologies Development Pte. Ltd., priority 2004, dated 2011).

Conditions: alcohol (leaving group) of the trifluoroacetate ester; no method or conditions printed

Q: For N-hydroypyrrolidinone [NHP], which pKa is on record?
A: Its pKa is 9.38.
